In patent publication US6274715A, “Tricyclic erythromycin derivatives” (priority 1997, dated 2001):
Converted amounts (≈) assume the structure as drawn.

Tests used:
Assay type in all cases: cell-based
[1] = system: STAPHYLOCOCCUS AUREUS ATCC 6538P; assay: In vitro antibacterial activity, MIC, BHI agar dilution; details: S. aureus ATCC 6538P, 35-37° C., 20 to 24 hours, unit assumed
[2] = system: STAPHYLOCOCCUS AUREUS A5177; assay: as above; details: S. aureus A5177, unit assumed
[3] = system: STAPHYLOCOCCUS AUREUS A-5278; assay: as above; details: S. aureus A-5278, unit assumed
[4] = system: STAPHYLOCOCCUS AUREUS CMX 642A; assay: as above; details: S. aureus CMX 642A, unit assumed
[5] = system: STAPHYLOCOCCUS AUREUS NCTC10649M; assay: as above; details: S. aureus NCTC10649M, unit assumed
[6] = system: STAPHYLOCOCCUS AUREUS CMX 553; assay: as above; details: S. aureus CMX 553, unit assumed
[7] = system: STAPHYLOCOCCUS AUREUS 1775; assay: as above; details: S. aureus 1775, unit assumed
[8] = system: STAPHYLOCOCCUS EPIDERMIDIS 3519; details: S. epidermidis 3519; BHI agar; unit assumed
EN[…] ATCC 8043 = assay: In vitro antibacterial activity, MIC, BHI agar dilution; details: E. faecium ATCC 8043, unit assumed
Procedure, shortened: (§1)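 Twelve successive aqueous dilutions of compound in Brain Heart Infusion agar were inoculated with 1:100 culture dilutions (1:10 for slow growers such as Micrococcus, Streptococcus) by Steers replicator and incubated at 35-37° C for 20 to 24 hours. MIC was the lowest concentration giving no growth, slight haze or sparse colonies versus drug-free control.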

M[…] ATCC 4698 = assay: as above; details: M. luteus ATCC 4698, unit assumed
Procedure, shortened: as §1

M[…] ATCC 9341 = assay: as above; details: M. luteus ATCC 9341, unit assumed
Procedure, shortened: as §1

STR[…] 508 = assay: as above; details: S. agalactiae CMX 508, unit assumed
Procedure, shortened: as §1

[9] = system: STREPTOCOCCUS BOVIS A-5169; assay: as above; details: S. bovis A-5169, unit assumed
[10] = system: STREPTOCOCCUS PYOGENES EES61; assay: as above; details: S. pyogenes EES61, unit assumed
[11] = system: STREPTOCOCCUS PYOGENES 930; assay: as above; details: S. pyogenes 930, unit assumed
[12] = system: STREPTOCOCCUS PYOGENES PIU 2548; assay: as above; details: S. pyogenes PIU 2548, unit assumed
ESCHERICHIA COLI JUHL = details: E. coli JUHL; BHI agar; unit assumed
ESCHERICHIA COLI SS = assay: In vitro antibacterial activity, MIC, BHI agar dilution; details: E. coli SS, unit assumed
ESCHERICHIA COLI DC-2 = assay: as above; details: E. coli DC-2, unit assumed
ESCHERICHIA COLI H560 = assay: as above; details: E. coli H560, unit assumed
ESCHERICHIA COLI KNK 437 = details: E. coli KNK 437; BHI agar; unit assumed
[13] = system: ENTEROBACTER AEROGENES ATCC 13048; assay: In vitro antibacterial activity, MIC, BHI agar dilution; details: E. aerogenes ATCC 13048, unit assumed
[14] = system: PROVIDENCIA STUARTII CMX 640; details: P. stuartii CMX 640; BHI agar; unit assumed
[15] = system: PSEUDOMONAS AERUGINOSA BMH10; assay: In vitro antibacterial activity, MIC, BHI agar dilution; details: P. aeruginosa BMH10, unit assumed
[16] = system: PSEUDOMONAS AERUGINOSA 5007; assay: as above; details: P. aeruginosa 5007, unit assumed
[17] = system: PSEUDOMONAS AERUGINOSA K799/WT; assay: as above; details: P. aeruginosa K799/WT, unit assumed
[18] = system: PSEUDOMONAS AERUGINOSA K799/61; assay: as above; details: P. aeruginosa K799/61, unit assumed
PSEUDOMONAS CEPACIA 296I = assay: as above; details: P. cepacia 296I, unit assumed
[19] = system: ACINETOBACTER CALCOACETICUS CMX 669; assay: as above; details: A. calcoaceticus CMX 669, unit assumed
[20] = system: PSEUDOMONAS AERUGINOSA DPHD-5263; assay: as above; details: P. aeruginosa DPHD-5263, unit assumed
[21] = system: PSEUDOMONAS AERUGINOSA DPHD-2862; assay: as above; details: P. aeruginosa DPHD-2862, unit assumed
CANDIDA ALBICANS CCH 442 = assay: as above; details: C. albicans CCH 442, unit assumed
[22] = system: MYCOBACTERIUM SMEGMATIS ATCC 114; assay: as above; details: M. smegmatis ATCC 114, unit assumed

| Structure (SMILES) | MIC [1] [µg/mL] | MIC [2] [µg/mL] | MIC [3] [µg/mL] | MIC [4] [µg/mL] | MIC [5] [µg/mL] | MIC [6] [µg/mL] | MIC [7] [µg/mL] | MIC [8] [µg/mL] | MIC (EN[…] ATCC 8043) [µg/mL] | MIC (M[…] ATCC 4698) [µg/mL] | MIC (M[…] ATCC 9341) [µg/mL] | MIC (STR[…] 508) [µg/mL] | MIC [9] [µg/mL] | MIC [10] [µg/mL] | MIC [11] [µg/mL] | MIC [12] [µg/mL] | MIC (ESCHERICHIA COLI JUHL) [µg/mL] | MIC (ESCHERICHIA COLI SS) [µg/mL] | MIC (ESCHERICHIA COLI DC-2) [µg/mL] | MIC (ESCHERICHIA COLI H560) [µg/mL] | also measured |
| --- | --- | --- | --- | --- | --- | --- | --- | --- | --- | --- | --- | --- | --- | --- | --- | --- | --- | --- | --- | --- | --- |
| CC[C@H]1OC(=O)[C@H](C)C(=O)[C@H](C)[C@@H](O[C@@H]2O[C@H](C)C[C@H](N(C)C)[C@H]2O)[C@](C)(OC)C[C@@H](C)C2=NC[C@H](COCc3ccc(F)cc3)N3C(=O)O[C@@]1(C)[C@H]3[C@H]2C [Example 71] | 0.1 (≈ 0.129 µM) | 0.1 (≈ 0.129 µM) | > 100 | 0.1 (≈ 0.129 µM) | 0.1 (≈ 0.129 µM) | 0.1 (≈ 0.129 µM) | > 100 | 0.1 (≈ 0.129 µM) | 0.05 (≈ 0.0644 µM) | 0.1 (≈ 0.129 µM) | 0.01 (≈ 0.0129 µM) | 0.01 (≈ 0.0129 µM) | 0.02 (≈ 0.0258 µM) | 0.01 (≈ 0.0129 µM) | 25 (≈ 32.2 µM) | 0.39 (≈ 0.503 µM) | 25 (≈ 32.2 µM) | 0.39 (≈ 0.503 µM) | 12.5 (≈ 16.1 µM) | 12.5 (≈ 16.1 µM) | MIC (ESCHERICHIA COLI KNK 437): 25 µg/mL (≈ 32.2 µM); MIC [13]: 50 µg/mL (≈ 64.4 µM); MIC [14]: 100 µg/mL (≈ 129 µM); MIC [15]: 50 µg/mL (≈ 64.4 µM); MIC [16]: 100 µg/mL (≈ 129 µM); MIC [17]: 100 µg/mL (≈ 129 µM); MIC [18]: 0.78 µg/mL (≈ 1.01 µM); MIC (PSEUDOMONAS CEPACIA 296I): 25 µg/mL (≈ 32.2 µM); MIC [19]: 12.5 µg/mL (≈ 16.1 µM); MIC [20]: > 100 µg/mL; MIC [21]: 100 µg/mL (≈ 129 µM); MIC (CANDIDA ALBICANS CCH 442): > 100 µg/mL; MIC [22]: 0.2 µg/mL (≈ 0.258 µM) |
| CC[C@H]1OC(=O)[C@H](C)C(=O)[C@H](C)[C@@H](O[C@@H]2O[C@H](C)C[C@H](N(C)C)[C@H]2O)[C@](C)(OC)C[C@@H](C)C2=N[C@H](COCc3ccccn3)CN3C(=O)O[C@@]1(C)[C@H]3[C@H]2C [Example 81] | 0.39 (≈ 0.514 µM) | 0.39 (≈ 0.514 µM) | > 100 | 0.39 (≈ 0.514 µM) | 0.39 (≈ 0.514 µM) | 0.39 (≈ 0.514 µM) | > 100 | 0.39 (≈ 0.514 µM) | 0.05 (≈ 0.0659 µM) | 0.39 (≈ 0.514 µM) | 0.05 (≈ 0.0659 µM) | 0.05 (≈ 0.0659 µM) | 0.05 (≈ 0.0659 µM) | 0.05 (≈ 0.0659 µM) | > 100 | 0.39 (≈ 0.514 µM) | > 100 | 1.56 (≈ 2.06 µM) | > 100 | 50 (≈ 65.9 µM) | MIC (ESCHERICHIA COLI KNK 437): > 100 µg/mL; MIC [13]: > 100 µg/mL; MIC [14]: > 100 µg/mL; MIC [15]: > 100 µg/mL; MIC [16]: > 100 µg/mL; MIC [17]: > 100 µg/mL; MIC [18]: 3.1 µg/mL (≈ 4.08 µM); MIC (PSEUDOMONAS CEPACIA 296I): > 100 µg/mL; MIC [19]: 100 µg/mL (≈ 132 µM); MIC [20]: > 100 µg/mL; MIC [21]: > 100 µg/mL; MIC (CANDIDA ALBICANS CCH 442): > 100 µg/mL; MIC [22]: 3.1 µg/mL (≈ 4.08 µM) |
